Results published in patent publication US10214553B2, “Solid state forms of sofosbuvir” (ratiopharm GmbH, priority 2014, dated 2019).
Converted amounts (≈) assume the structure as drawn.

Columns and labels:
Assay type in all cases: physicochemical
[1] = DVS water vapor sorption (hygroscopicity); details: for critical relative humidity in the sorption curve at which the rate of water uptake changes (inflection point): DVS sorption curve; for Change in Mass (%): 25° C.
Protocol: The improved hygroscopic properties discussed herein above may be expressed by the dynamic water uptake monitored by the DVS instrument. The profile of the dynamic curve obtained may provide insight on the tendency of the substance to deliquescence. […] This behavior indicates a long-term possibility of the stored powder to stick and form lumps.
DVS measurements were performed SMS DVS instrument
Humidity range: 0%-90%-0% cycle. […]
minimum step duration: 60 min maximum step duration: 720 min

[2] = Storage stability of the solid form
[3] = Solubility at 37° C. by UHPLC/UV; details: for solubility at 15 min / solubility at 1 h: 37 °C, thermodynamic from solid
Protocol: (§1) Sofosbuvir form 6 prepared according to example 18 above and Sofosbuvir form 7 prepared according to example 16 above was used.
The solubility was determined as follows:
100 mg test substance was weighed into a glass vial, followed by addition of 4 mL solvent (water, 0.01 M HCl, 20 mM sodium acetate/acetic acid [pH 4.5], 50 mM KH2PO4 [pH 6.8]). A stirring bar was added, the vial was fixed in a block heater at 37° C. and the suspension was stirred with 250 rpm. After 15 min and 1 h, samples were withdrawn and filtered through a 0.2 μm PTFE filter. 100 μL of the clear filtrate were diluted with 900 μL acetonitrile/water mixture (1:1) and 1 μL thereof was analyzed by UHPLC/UV:
Instrument: Agilent 1290 Infinity
Column: Phenomenex Kinetex XB—C18, 1.7 μm, 50×3 mm
Solvent A: water+0.2% Formic acid+0.1% HFBA […] heptafluorobutyric acid)

[4] = Dissolution, USP apparatus II, paddle method; details: pH 6.8, after 5 minutes
Protocol: Sofosbuvir form 6 prepared according to example 18 above and Sofosbuvir form 7 prepared according to example 16 above was used. The dissolution of Sofosbuvir Form 7 and Form 6 was measured (in triplicate) in 50 mM phosphate buffer at 37° C. (pH 6.8, 900 mL), using USP apparatus II, paddle method. Every 5 minutes, a probe was taken and measured by UV/VIS at 260 nm and path length 0.1 cm; UV/VIS was measured on an Agilent model 8453 with Chem Station Dissolution Software. 400 mg of Sofosbuvir Form 7 or Form 6 was used for the test, and the percentages are given in relation to 400 mg of the API. The results are represented graphically in FIG. 13.

[5] = Compressibility, maximum density at constant pressure of 0.2 MPa (TA-XT2 Texture analyser); details: 0.2 MPa per step, 10 steps
Protocol: As used herein, and unless indicated otherwise, the term “compressibility” is expressed as maximum density at constant pressure of 0.2 MPa.
Compression profiles were obtained using a die and a flat-faced punch fitted on a TA-XT2 Texture analyser (Stable Micro Systems Ltd., Godalming, UK).
200 mg of micronized crystalline form E of Sofosbuvir obtained according to example 8 is compressed in a steel mould (with the rate of displacement 0.03 mm/s). Cyclic procedure (similar to tapping) was performed: compressing, then retracting, relaxation for 15 s and then repeated compressive steps (altogether 10 steps). Each step exerts 0.2 MPa pressure on to the sample. Sample density is calculated by dividing the weight by the sample volume for each cycle. Maximum density is reached within 10 steps. The maximal compressive displacement was 0.5 mm. The resulting density was: 0.48 g/ml

[6] = Propensity to become electrostatically charged
[7] = Particle size distribution by laser diffractometry (Mastersizer 2000, wet measurement); details: silicone oil
Protocol: If a wet measurement is used the particles to be measured are dispersed in a dispersant, preferably a dispersant having a refractive index (RI) of 1.403, and the measurement is carried out at 2000 rpm and ultrasound for 120 s prior to measurement. Preferably, unless otherwise indicated the particle size distribution is determined using a wet measurement using a Mastersizer 2000 from Malvern Instruments and Malvern Hydro 2000S wet sample dispersion unit and silicone oil as dispersant. Unless otherwise indicated, the following settings are preferably used:
as §1
The particle size distribution was determined using a wet measurement using a Mastersizer 2000 from Malvern Instruments and Malvern Hydro 2000S wet sample dispersion unit and silicone oil as dispersant.

## CC(C)OC(=O)[C@H](C)NP(=O)(OC[C@H]1O[C@@H](n2ccc(=O)[nH]c2=O)[C@](C)(F)[C@@H]1O)Oc1ccccc1 (stereo partly drawn) [Form 1, (2S)-isopropyl 2-(((((2R,3R,4R,5R)-5-(2,4-dioxo-3,4-dihydropyrimidin-1(2H)-yl)-4-fluoro-3-hydroxy-4-methyltetrahydrofuran-2-yl)methoxy)(phenoxy)phosphoryl)amino)propanoate]
[1]
  critical relative humidity in the sorption curve at which the rate of water uptake changes (inflection point): about 80 % RH
[1]; DVS, above 80% RH
  water uptake: about 5%
[1]; DVS, relative humidity 70%
  Change in Mass (%): 0.13%
[1]; DVS, relative humidity 90%
  Change in Mass (%): 5.57%

## CC(C)OC(=O)[C@H](C)NP(=O)(OC[C@H]1O[C@@H](n2ccc(=O)[nH]c2=O)[C@](C)(F)[C@@H]1O)Oc1ccccc1 (stereo partly drawn) [Form E, (2S)-isopropyl 2-(((((2R,3R,4R,5R)-5-(2,4-dioxo-3,4-dihydropyrimidin-1(2H)-yl)-4-fluoro-3-hydroxy-4-methyltetrahydrofuran-2-yl)methoxy)(phenoxy)phosphoryl)amino)propanoate]
[1]; DVS
  hysteresis between the desorption and the absorption isotherm: doesn't exhibit any hysteresis
[1]
  critical relative humidity in the sorption curve at which the rate of water uptake changes (inflection point): does not show this inflection point
[1]; DVS, relative humidity 70%
  Change in Mass (%): 0.07%
[1]; DVS, relative humidity 90%
  Change in Mass (%): 0.12%
[2]; at 25 degrees
  stable for: at least 3 months
[2]; at 40 degrees
  stable for: at least 3 months

## CC(C)OC(=O)[C@H](C)NP(=O)(OC[C@H]1O[C@@H](n2ccc(=O)[nH]c2=O)[C@](C)(F)[C@@H]1O)Oc1ccccc1 (stereo partly drawn) [Form 7, (2S)-isopropyl 2-(((((2R,3R,4R,5R)-5-(2,4-dioxo-3,4-dihydropyrimidin-1(2H)-yl)-4-fluoro-3-hydroxy-4-methyltetrahydrofuran-2-yl)methoxy)(phenoxy)phosphoryl)amino)propanoate]
[3]; 0.01 M HCl, pH 2, simulated gastric fluid, 15 min
  solubility at 15 min: 3200 µg/mL (≈ 6.04 mM)
[3]; 0.01 M HCl, pH 2, simulated gastric fluid, 1 h
  solubility at 1 h: 3200 µg/mL (≈ 6.04 mM)
[3]; 20 mM sodium acetate/acetic acid buffer, pH 4.5, aqueous buffer, 20 mM NaOAc/HOAc (pH 4.5), 15 min
  solubility at 15 min: 3100 µg/mL (≈ 5.86 mM)
[3]; 20 mM sodium acetate/acetic acid buffer, pH 4.5, aqueous buffer, 20 mM NaOAc/HOAc (pH 4.5), 1 h
  solubility at 1 h: 3100 µg/mL (≈ 5.86 mM)
[3]; 50 mM KH2PO4 buffer, pH 6.8, aqueous buffer, 50 mM KH2PO4 (pH 6.8), 15 min
  solubility at 15 min: 3200 µg/mL (≈ 6.04 mM)
[3]; 50 mM KH2PO4 buffer, pH 6.8, aqueous buffer, 50 mM KH2PO4 (pH 6.8), 1 h
  solubility at 1 h: 3000 µg/mL (≈ 5.67 mM)
[3]; physiologically relevant solvents, after 15 min and after 1 hour
  solubility compared with the solubility of Form 6: approximately one third higher
[3]; water, 15 min
  solubility at 15 min: 3100 µg/mL (≈ 5.86 mM)
[3]; water, 1 h
  solubility at 1 h: 3100 µg/mL (≈ 5.86 mM)
[4]
  solubility (percent dissolved): ≥ 65%

## CC(C)OC(=O)[C@H](C)NP(=O)(OC[C@H]1O[C@@H](n2ccc(=O)[nH]c2=O)[C@](C)(F)[C@@H]1O)Oc1ccccc1 (stereo partly drawn) [(2S)-isopropyl 2-(((((2R,3R,4R,5R)-5-(2,4-dioxo-3,4-dihydropyrimidin-1(2H)-yl)-4-fluoro-3-hydroxy-4-methyltetrahydrofuran-2-yl)methoxy)(phenoxy)phosphoryl)amino)propanoate]
[5]
  resulting density (compressibility): 0.48 g/mL

## CC(C)OC(=O)[C@H](C)NP(=O)(OC[C@H]1O[C@@H](n2ccc(=O)[nH]c2=O)[C@](C)(F)[C@@H]1O)Oc1ccccc1 (stereo partly drawn) [Form 6, (2S)-isopropyl 2-(((((2R,3R,4R,5R)-5-(2,4-dioxo-3,4-dihydropyrimidin-1(2H)-yl)-4-fluoro-3-hydroxy-4-methyltetrahydrofuran-2-yl)methoxy)(phenoxy)phosphoryl)amino)propanoate]
[3]; 0.01 M HCl, 15 min
  Solubility: 2500 µg/mL (≈ 4.72 mM)
[3]; 0.01 M HCl, 1 h
  Solubility: 2400 µg/mL (≈ 4.53 mM)
[3]; 20 mM NaOAc/HOAc (pH 4.5), 15 min
  Solubility: 2400 µg/mL (≈ 4.53 mM)
[3]; 20 mM NaOAc/HOAc (pH 4.5), 1 h
  Solubility: 2500 µg/mL (≈ 4.72 mM)
[3]; 50 mM KH2PO4 (pH 6.8), 15 min
  Solubility: 2300 µg/mL (≈ 4.34 mM)
[3]; 50 mM KH2PO4 (pH 6.8), 1 h
  Solubility: 2300 µg/mL (≈ 4.34 mM)
[3]; water, 15 min
  Solubility: 2400 µg/mL (≈ 4.53 mM)
[3]; water, 1 h
  Solubility: 2300 µg/mL (≈ 4.34 mM)
[1]
  critical relative humidity in the sorption curve at which the rate of water uptake changes (inflection point): about 70 % RH
[1]; DVS, above 70% RH
  water uptake: about 1%
[1]; DVS, relative humidity 70%
  Change in Mass (%): 0.14%
[1]; DVS, relative humidity 90%
  Change in Mass (%): 1.08%
[6]
  propensity to become electrostatically charged: high propensity to become electrostatically charged
[7]
  Particle size D10: 2.0 μm
  Particle size D50: 8.2 μm
  Particle size D90: 22.9 μm
